Molecules are shown by their SMILES. The source made the active and inactive calls. No cut-off for these calls is given here.

What is called inhibition is the change of the read-out against control, counted positive when it falls.

The test system of experiment [1] is Pythium aphanidermatum. Kind of experiment: Effect on CesA3 gene expression in Pythium aphanidermatum at 200 uM after 8 hr by qRT-PCR method. It counts as functional, organism-based. For orientation: Quantitative PCR measures a nucleic acid by following its amplification.
Experiment [2] deals with Pythium aphanidermatum. Kind of experiment: Down-regulation of CesA3 gene expression in Pythium aphanidermatum at 200 uM after 0.5 to 4 hr by qRT-PCR method. The experiment is classed as functional, organism-based.
Experiment [3] concerns Pythium aphanidermatum. The experiment can be described thus: Down-regulation of CesA2 gene expression in Pythium aphanidermatum at 200 uM after 0.5 to 4 hr by qRT-PCR method. The experiment is classed as functional, organism-based.
Experiment [4] relates to Pythium aphanidermatum. Kind of experiment: Effect on CesA2 gene expression in Pythium aphanidermatum at 200 uM after 8 hr by qRT-PCR method. It counts as functional, organism-based.
In experiment [5] the test system is Pythium aphanidermatum. The experiment can be described thus: Effect on CesA4 gene expression in Pythium aphanidermatum at 100 uM after 0.5 to 8 hr by qRT-PCR method. The experiment is classed as functional, organism-based.
Experiment [6] has as its system Pythium aphanidermatum. Kind of experiment: Effect on PaChs gene expression in Pythium aphanidermatum at 200 uM after 0.5 to 8 hr by qRT-PCR method. It counts as functional, organism-based.
Experiment [7] relates to Pythium aphanidermatum. The experiment can be described thus: Antifungal activity against Pythium aphanidermatum assessed as inhibition of mycelial growth at 200 uM after 3 days. It counts as functional. The settings on record: 72 h, read-out: GI.
Experiment [8] concerns Pythium aphanidermatum. Kind of experiment: Inhibition of zoospores encystment of Pythium aphanidermatum synchronised cytospores at 100 uM after 4 hr. The experiment is classed as functional, organism-based.
The subject of experiment [9] is Pythium aphanidermatum. The experiment can be described thus: Inhibition of zoospores release of Pythium aphanidermatum synchronised cytospores at 100 uM after 4 hr. The experiment is classed as functional, organism-based.
Experiment [10] relates to Pythium aphanidermatum. The experiment can be described thus: Effect on CesA1 gene expression in Pythium aphanidermatum at 200 uM after 8 hr by qRT-PCR method. The experiment is classed as functional, organism-based.
Experiment [11] has as its system Pythium aphanidermatum. The experiment can be described thus: Inhibition of germ tube elongation of Pythium aphanidermatum synchronised cytospores at 500 uM after 4 hr. The experiment is classed as functional.
For experiment [12], the system named is Pythium aphanidermatum. The experiment can be described thus: Effect on PaChs gene expression in Pythium aphanidermatum at 100 uM after 0.5 to 8 hr by qRT-PCR method. The experiment is classed as functional, organism-based.
In another experiment the test system is Saprolegnia monoica. Kind of experiment: Antifungal activity against Saprolegnia monoica assessed as inhibition of mycelial growth at 200 uM after 3 days. It counts as functional. The settings on record: 72 h, read-out: GI.
Experiment [13] relates to Pythium aphanidermatum. The experiment can be described thus: Down-regulation of CesA4 gene expression in Pythium aphanidermatum at 200 uM after 0.5 to 4 hr by qRT-PCR method. The experiment is classed as functional, organism-based.
For experiment [14], the system named is Pythium aphanidermatum. Kind of experiment: Effect on CesA3 gene expression in Pythium aphanidermatum at 100 uM after 0.5 to 8 hr by qRT-PCR method. The experiment is classed as functional, organism-based.
Experiment [15] relates to Pythium aphanidermatum. Kind of experiment: Inhibition of germ tube elongation of Pythium aphanidermatum synchronised cytospores at >100 uM after 4 hr. The experiment is classed as functional, organism-based.
Experiment [16] has as its system Pythium aphanidermatum. The experiment can be described thus: Effect on CesA4 gene expression in Pythium aphanidermatum at 200 uM after 8 hr by qRT-PCR method. The experiment is classed as functional, organism-based.
Experiment [17] has as its system Pythium aphanidermatum. Kind of experiment: Down-regulation of CesA1 gene expression in Pythium aphanidermatum at 200 uM after 0.5 to 4 hr by qRT-PCR method. It counts as functional, organism-based.
The subject of experiment [18] is Pythium aphanidermatum. Kind of experiment: Inhibition of germ tube elongation of Pythium aphanidermatum synchronised cytospores at 0.5 to 121 uM after 4 hr. It counts as functional, organism-based.
Experiment [19] deals with Pythium aphanidermatum. The experiment can be described thus: Antifungal activity against Pythium aphanidermatum assessed as inhibition of mycelial growth at 10 uM after 3 days. The experiment is classed as functional, organism-based.
Experiment [20] deals with Pythium aphanidermatum. Kind of experiment: Up-regulation of CesA1 gene expression in Pythium aphanidermatum at 100 uM after 8 hr by qRT-PCR method relative to untreated control. It counts as functional.
For experiment [21], the system named is Pythium aphanidermatum. Kind of experiment: Antifungal activity against Pythium aphanidermatum assessed as inhibition of mycelial growth at 100 uM after 3 days. The experiment is classed as functional. The settings on record: 72 h, read-out: GI.
The test system of experiment [22] is Pythium aphanidermatum. Kind of experiment: Up-regulation of CesA2 gene expression in Pythium aphanidermatum at 100 uM after 8 hr by qRT-PCR method relative to untreated control. The experiment is classed as functional.

`N#Cc1c(Cl)cccc1Cl` [DICHLOBENIL]: the result in the experiment with Pythium aphanidermatum [1], in the experiment on Pythium aphanidermatum [4], with Pythium aphanidermatum [5], in the experiment on Pythium aphanidermatum [6], in the experiment with Pythium aphanidermatum [10] and in the experiment with Pythium aphanidermatum [12] was inactive. Further, the result with Pythium aphanidermatum [14] and in the experiment on Pythium aphanidermatum [16] was inactive. Further, the outcome in the experiment with Pythium aphanidermatum [2], in the experiment with Pythium aphanidermatum [3], in the experiment with Pythium aphanidermatum [13] and in the experiment on Pythium aphanidermatum [17] was Active. Besides, the inhibition of growth at 200 µM in the experiment on Pythium aphanidermatum [7] came to 12%; in the experiment with Saprolegnia monoica, 40%. For the same compound, the inhibition entry in the experiment with Pythium aphanidermatum [8] and with Pythium aphanidermatum [9] was “inactive” each time. Moreover, the inhibition at 500 µM in the experiment on Pythium aphanidermatum [11] stood at 18%. The inhibition entry in the experiment on Pythium aphanidermatum [15] is “Active”.

Regarding `C#CCOc1ccc(CCNC(=O)C(OCC#C)c2ccc(Cl)cc2)cc1OC` (stereo not drawn) [MANDIPROPAMID], the inhibition result in the experiment on Pythium aphanidermatum [18] was “inactive”. The “growth inhibition (GI)” value in the experiment with Pythium aphanidermatum [19] is “inactive”. In addition, the “fold change (FC)” value in the experiment on Pythium aphanidermatum [20] is on record as 1.6; in the experiment on Pythium aphanidermatum [22], 2. In addition, the inhibition of growth at 100 µM in the experiment on Pythium aphanidermatum [21] was 34%.
